Eleven compounds from patent publication US4188485A, “1-[(10,11-Dihydro-5H-dibenzo[a,d]-cyclohepten-5-yl)methyl]-4-substituted piperidines and related compounds” (G. D. Searle & Co., priority 1978, dated 1980) can be followed below.

As a reminder, the pIC50 is the IC50 on a negative log10 scale, so that one unit is a factor of ten.

For experiment [1], the target named is dopamine receptors. Briefly: Receptor Binding Assay, displacement of ^3 H-dopamine binding to calf caudate membranes. Particulars: for pIC50: read-out: ^3 H-Dopamine (IC50), calf caudate membrane homogenate, 37° C., 10 minutes, non-specific binding with 10^-5 M (+)-Butaclamol.
In experiment [2] the test system is dopamine receptors. Briefly: biochemical. In kind it is binding. Conditions: ^3 H-Haloperidol and ^3 H-Spiroperidol versus ^3 H-dopamine sites; compared with clozapine and chloropromazine.
Experiment [3] deals with dopamine receptors (Bos taurus, UniProt P20288). Briefly: biochemical. In kind it is binding. Conditions: 1.6 nM ^3 H-haloperidol, calf caudate membrane homogenate, 37° C., 10 minutes; non-specific binding with 10^-4 M dopamine.
Sequence of dopamine receptors (Bos taurus, UniProt P20288) (P20288 whole entry): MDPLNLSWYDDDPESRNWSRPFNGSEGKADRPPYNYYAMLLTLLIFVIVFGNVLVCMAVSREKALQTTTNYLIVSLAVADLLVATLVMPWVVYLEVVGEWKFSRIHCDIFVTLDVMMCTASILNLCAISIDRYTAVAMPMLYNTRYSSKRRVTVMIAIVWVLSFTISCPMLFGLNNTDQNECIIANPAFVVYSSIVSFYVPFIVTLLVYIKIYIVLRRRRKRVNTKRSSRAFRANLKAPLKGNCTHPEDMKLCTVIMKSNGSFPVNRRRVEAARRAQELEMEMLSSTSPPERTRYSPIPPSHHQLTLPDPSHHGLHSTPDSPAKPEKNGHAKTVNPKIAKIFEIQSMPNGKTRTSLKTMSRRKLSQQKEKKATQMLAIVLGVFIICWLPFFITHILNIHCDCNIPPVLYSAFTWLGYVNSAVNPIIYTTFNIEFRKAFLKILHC
For experiment [4], the target named is dopamine receptors. Briefly: Receptor Binding Assay, displacement of ^3 H-Spiroperidol binding to calf caudate membranes. Particulars: read-out: ^3 H-Spiroperidol (IC50); 0.15 nM ^3 H-Spiroperidol, calf caudate membrane homogenate, 37° C., 20 minutes; non-specific binding with 10^-5 M (+)-Butaclamol.

Structures are written as SMILES. pIC50: −log10 of the molar value.

`CC(C)(C)C1(O)CCN(CC2c3ccccc3Oc3ccccc32)CC1.Cl` [Compound F, 4-tert-butyl-1-(xanthen-9-ylmethyl)-4-piperidinol, hydrochloride]: the pIC50 was 4.82 on dopamine receptors [1], 6.51 at dopamine receptors [3] and 5.23 on dopamine receptors [4]. Moreover, the antagonist ratios entry in the experiment on dopamine receptors [2] is “comparable to clozapine and chloropromazine”.
Regarding `OC1CCN(CC(c2ccccc2)c2ccccc2)CC1C1(O)CCN(CC(c2ccccc2)c2ccccc2)CC1` (stereo not shown) [Compound J, 1-(2,2-diphenylethyl)-3-[1-(2,2-phenylethyl)-4-hydroxypiperidin-4-yl]-4-piperidinol], the pIC50 was 4.60 on dopamine receptors [1] and 7.05 on dopamine receptors [3]. The antagonist ratios result in the experiment on dopamine receptors [2] was “comparable to clozapine and chloropromazine”.
Consider `CC(C)(C)C1(O)CCN(CC2c3ccccc3CCc3ccccc32)CC1` [Compound A], for which the pIC50 is 4.82 at dopamine receptors [1], 8.62 at dopamine receptors [3] and 6.07 on dopamine receptors [4]. For the same compound, the antagonist ratios entry in the experiment with dopamine receptors [2] was “comparable to clozapine and chloropromazine”.
In the case of `CC(C)(C)C1(O)CCN(CC2c3ccccc3Sc3ccccc32)CC1.Cl` [Compound G, 4-tert-butyl-1-(thioxanthen-9-ylmethyl)-4-piperidinol, hydrochloride], the pIC50 is 5.35 at dopamine receptors [1], 6.54 on dopamine receptors [3] and 6.04 on dopamine receptors [4]. Further, in the experiment with dopamine receptors [2], the antagonist ratios result was “comparable to clozapine and chloropromazine”.
Turning to `CC(C)(C)C1(O)CCN(CC2c3ccccc3CCc3ccc(Br)cc32)CC1.Cl` (stereo not shown) [Compound C, 4-tert-butyl-1-[(3-bromo-10,11-dihydro-5H-dibenzo[a,d]cyclohepten-5-yl)methyl]-4-piperidinol hydrochloride], the pIC50 at dopamine receptors [1] was 5.77; on dopamine receptors [3], 6.55; on dopamine receptors [4] it was 6.66. Further, the antagonist ratios entry in the experiment with dopamine receptors [2] was “comparable to clozapine and chloropromazine”.
In the case of `CC(C)(C)C1(O)CCN(CC2c3ccccc3CCc3cc(Cl)ccc32)CC1` (stereo not shown) [Compound B], the pIC50 was 6.06 at dopamine receptors [1], 8.12 on dopamine receptors [3] and 6.57 on dopamine receptors [4]. Moreover, the antagonist ratios entry in the experiment on dopamine receptors [2] was “comparable to clozapine and chloropromazine”.
As to `O=C1CCN(CC(c2ccccc2)c2ccccc2)CC1C1(O)CCN(CC(c2ccccc2)c2ccccc2)CC1` (stereo not shown) [Compound I, 1-(2,2-diphenylethyl)-3-[1-(2,2-diphenylethyl)-4-hydroxypiperidin-4-yl]-4-piperidinone], the pIC50 at dopamine receptors [1] is 4.57; at dopamine receptors [3], 6.30. Besides, the antagonist ratios entry in the experiment on dopamine receptors [2] was “comparable to clozapine and chloropromazine”.
As to `CC(C)(C)C1(O)CCN(CC(c2ccccc2)c2ccccc2)CC1` [Compound H, 4-tert-butyl-1-(2,2-diphenylethyl)-4-piperidinol], the negative logarithm of the IC50 (pIC50) at dopamine receptors [1] is 4.22; at dopamine receptors [3], 6.80; on dopamine receptors [4], 5.44. In addition, the antagonist ratios result with dopamine receptors [2] was “comparable to clozapine and chloropromazine”.
With `Cl.Cl.NC1CCN(CC2c3ccccc3CCc3ccccc32)CC1` [Compound E, 1-[(10,11-dihydro-5H-dibenzo[a,d]cyclohepten-5-yl)methyl]-4-piperidinamine, dihydrochloride], the “^3 H-Dopamine, % at 10^-4” value in the experiment with dopamine receptors [1] (at 10^-4, calf caudate membrane homogenate, 37° C., 10 minutes, 100 µM) is reported as 27%. In addition, the antagonist ratios entry with dopamine receptors [2] was “comparable to clozapine and chloropromazine”. The pIC50 on dopamine receptors [3] is 5.60; at dopamine receptors [4], 4.52.
For `O=C1CCN(CC(c2ccc(Cl)cc2)c2ccc(Cl)cc2)CC1C1(O)CCN(CC(c2ccc(Cl)cc2)c2ccc(Cl)cc2)CC1` (stereo not shown) [Compound K, 1-[2,2-bis(p-chlorophenyl)ethyl]-3-{1-[2,2-bis(p-chlorophenyl)ethyl]-4-hydroxypiperidin-4-yl}-4-piperidinone], the antagonist ratios entry in the experiment on dopamine receptors [2] was “comparable to clozapine and chloropromazine”. Besides, the pIC50 at dopamine receptors [3] was 5.00.
With `CC(C)(C)C1(O)CCN(CC2c3ccccc3C=Cc3ccccc32)CC1.Cl` [Compound D, 4-tert-butyl-1-[(5H-dibenzo[a,d]cyclohepten-5yl)methyl]-4-piperidinol, hydrochloride], the pIC50 was 5.14 at dopamine receptors [1], 7.43 on dopamine receptors [3] and 5.82 on dopamine receptors [4]. In the experiment on dopamine receptors [2], the antagonist ratios result was “comparable to clozapine and chloropromazine”.
